Data: patent publication US10618914B2 (UNIVERSITY OF PITTSBURGH—OF THE COMMONWEALTH SYSTEM OF …, priority 2015, dated 2020)
Read-outs that look alike come from different tables or passages of the source.

How the values were obtained:
Type in all cases: cell-based
STAT3 = test: HCS STAT3 assay; conditions: read-out: STAT3 IC50 (converted)
STAT1 = STAT1 assay (selectivity counter-screen)
[1] = system: HNSCC cell lines 686LN, FADU, CAL33, OSC19; test: Growth inhibition on HNSCC cell line panel; conditions: range over cell lines 686LN
Cal33 cells = test: Cal33 growth inhibition
686LN = test: Growth inhibition on HNSCC cell line 686LN; conditions: average of 2 experiments
FADU = test: Growth inhibition on HNSCC cell line FADU; conditions: average of 2 experiments
OSC19 = test: Growth inhibition on HNSCC cell line OSC19; conditions: average of 2 experiments; read-out: 0SC19 GI50
[2] = Table 5, * average of 2 experiments
[3] = Table 6, average of 2 experiments

| IC50 (STAT3; [2]) [µM] | SMILES | IC50 (STAT1; [2]) [µM] | GI50 (Cal33 cells; [2]) [µM] | also measured |
| --- | --- | --- | --- | --- |
| – | Clc1ccc(C2=Nn3c(nnc3-c3[nH]nc4c3CCC4)SC2)cc1Cl [1a] | – | – | IC50 (STAT3; Table 4): 6.8 ± 3.7 µM; IC50 (STAT1; Table 4): > 50 µM; GI50 [1]: 14 to 26 µM |
| – | Clc1ccc(C2=Nn3c(nnc3-c3cc(-c4ccccc4)n[nH]3)SC2)cc1 [2b] | – | – | IC50 (STAT3; Table 4): 9.6 µM; IC50 (STAT1; Table 4): > 50 µM; GI50 [1]: 27 to 44 µM |
| 3.8 ± 0.8 | CC1Sc2nnc(-c3cc(-c4ccc(F)cc4)n[nH]3)n2N=C1c1ccccc1 (centres unmarked) [Cmpd 22] | > 30 | 36.3 ± 9.7 | – |
| 4.2 | COc1ccc(C2=Nn3c(nnc3-c3cc(-c4ccc(F)cc4)n[nH]3)SC2C)cc1 (centres unmarked) [Cmpd 23] | > 30 | 29.5 ± 6.5 | – |
| 4.4 | CC(C)C1Sc2nnc(-c3[nH]nc4c3CCC4)n2N=C1c1ccc(Cl)c(Cl)c1 (centres unmarked) [Cmpd 25] | > 50 | 8.2 | – |
| 4.1 | CCC(C)C1Sc2nnc(-c3[nH]nc4c3CCC4)n2N=C1c1ccc(OC)cc1 (centres unmarked) [Cmpd 27] | > 50 | 3.5 ± 1.5 | – |
| 7.5 | CCCCC1Sc2nnc(-c3[nH]nc4c3CCC4)n2N=C1c1ccc(Cl)c(Cl)c1 (centres unmarked) [Cmpd 29] | > 50 | 3.3 | – |
| 18.6 | CC1(C)Sc2nnc(-c3[nH]nc4c3CCC4)n2N=C1c1ccc(Cl)c(Cl)c1 [Cmpd 32] | > 50 | > 50 | – |
| – | COc1ccc(C2=Nn3c(nnc3-c3[nH]nc4c3CCC4)SC2C)cc1 (centres unmarked) [compound 20] | – | – | GI50 (Cal33 cells; [3]): 0.18 µM; GI50 (686LN): 0.88 µM; GI50 (FADU): 1.3 µM; GI50 (OSC19): 3.1 µM |
| – | COc1ccc(C2=Nn3c(nnc3-c3cc(-c4ccc(Cl)cc4)n[nH]3)SC2C)cc1 (centres unmarked) [compound 24] | – | – | GI50 (Cal33 cells; [3]): 2.2 µM; GI50 (686LN): 17.4 µM; GI50 (FADU): 8.4 µM; GI50 (OSC19): 14.9 µM |

| SMILES | IC50 (STAT3; [2]) [µM] | IC50 (STAT1; [2]) [µM] | GI50 (Cal33 cells; [2]) [µM] | also measured |
| --- | --- | --- | --- | --- |
| CC1Sc2nnc(-c3cc(-c4ccccc4)n[nH]3)n2N=C1c1ccccc1 (centres unmarked) [Cmpd 21] | 3.4 | 15 | 34.1 ± 8.7 | – |
